Patent US12643881B2, “Bicyclic amine CDK12 inhibitors” (Incyte Corporation, priority 2021, dated 2026)
pIC50: −log10 of the molar value.

The compounds below were run against T1, CDK12 complexed with Cyclin K (Homo sapiens, UniProt Q9NYV4) (assay: Alternative CDK Enzymatic Assays (HTRF, pre-incubation with compounds and 1 mM ATP), Example A2). Conditions: enzyme pre-incubated with compounds and 1 mM ATP for 60 minutes; reaction 120 minutes at 25° C.
T1 construct: GST (N)
Assay type: biochemical
Description: Example A2. Alternative CDK Enzymatic Assays
The following activity of the CDK enzymes in complex with their respective cyclins we assayed: CDK1 complexed with Cyclin B1; CDK2 complexed with Cyclin E1; CDK4 complexed with Cyclin D1; CDK6 complexed with Cyclin D1; CDK6 complexed with Cyclin D3; CDK9 complexed with Cyclin T1; CDK7 complexed with Cyclin H/MAT1; CDK2 complexed with Cyclin A2; CDK5 complexed with p35; CDK12 complexed with Cyclin K; CDK13 complexed with Cyclin K. These in vitro enzyme activity are assayed using homogeneous time-resolved energy transfer (HTRF), which measures phosphorylation of a peptide substrate. The LANCER Ultra kinase assay (PerkinElmer) uses a ULight™-labeled EIF4E-binding protein 1 (THR37/46) peptide (DYSTTPGGTLFSTTPGTRI (SEQ ID NO: 1)) substrate and a Europium-labeled anti-phospho-4E-BP1 antibody (CDK2, CDK1, CDK4, CDK6, CDK9, CDK12, CDK13) or ULight™-labeled Myelin Basic Protein peptide (VTPRTPPP (SEQ ID NO: 2)) substrate and a Europium-labeled anti-phospho-MBP antibody (CDK7). Each CDK enzyme activity assays utilized human CDK co-expressed as N-terminal GST-tagged protein with its full length cyclin partner using a baculovirus expression system.
Enzyme was pre-incubated with compounds and 1 mM ATP for 60 minutes (CDK 1, 2, 4, 6, 9, 7, 12, 13) prior to the addition of ATP and Ulight-peptide (1 mM and 50 nM final, respectively), in assay buffer containing 50 mM HEPES pH 7.5, 1 mM EGTA, 10 mM MgCl2, 2 mM DTT, 0.05 mg/mL BSA, and 0.01% Tween 20. The reaction was then incubated for 120 minutes at 25° C. incubator. The reactions were stopped by the addition of EDTA and Europium labeled antibody, for a final concentration of 15 mM and 0.5-1.5 nM, respectively. HTRF signals were read after 15-120 minutes. A ratio of fluorescence transferred to the labeled substrate (665 nm) relative to fluorescence of the Europium donor (620 nm) represents the extent of phosphorylation. Ratios for treated wells were normalized to DMSO only (100% activity) and no enzyme (0% activity) controls. Normalized data was analyzed using a three or four parameter dose response curve to determine IC50 for each compound and are shown in Table B. Control reference inhibitors were included on each plate.

T1 sequence (Q9NYV4 whole entry): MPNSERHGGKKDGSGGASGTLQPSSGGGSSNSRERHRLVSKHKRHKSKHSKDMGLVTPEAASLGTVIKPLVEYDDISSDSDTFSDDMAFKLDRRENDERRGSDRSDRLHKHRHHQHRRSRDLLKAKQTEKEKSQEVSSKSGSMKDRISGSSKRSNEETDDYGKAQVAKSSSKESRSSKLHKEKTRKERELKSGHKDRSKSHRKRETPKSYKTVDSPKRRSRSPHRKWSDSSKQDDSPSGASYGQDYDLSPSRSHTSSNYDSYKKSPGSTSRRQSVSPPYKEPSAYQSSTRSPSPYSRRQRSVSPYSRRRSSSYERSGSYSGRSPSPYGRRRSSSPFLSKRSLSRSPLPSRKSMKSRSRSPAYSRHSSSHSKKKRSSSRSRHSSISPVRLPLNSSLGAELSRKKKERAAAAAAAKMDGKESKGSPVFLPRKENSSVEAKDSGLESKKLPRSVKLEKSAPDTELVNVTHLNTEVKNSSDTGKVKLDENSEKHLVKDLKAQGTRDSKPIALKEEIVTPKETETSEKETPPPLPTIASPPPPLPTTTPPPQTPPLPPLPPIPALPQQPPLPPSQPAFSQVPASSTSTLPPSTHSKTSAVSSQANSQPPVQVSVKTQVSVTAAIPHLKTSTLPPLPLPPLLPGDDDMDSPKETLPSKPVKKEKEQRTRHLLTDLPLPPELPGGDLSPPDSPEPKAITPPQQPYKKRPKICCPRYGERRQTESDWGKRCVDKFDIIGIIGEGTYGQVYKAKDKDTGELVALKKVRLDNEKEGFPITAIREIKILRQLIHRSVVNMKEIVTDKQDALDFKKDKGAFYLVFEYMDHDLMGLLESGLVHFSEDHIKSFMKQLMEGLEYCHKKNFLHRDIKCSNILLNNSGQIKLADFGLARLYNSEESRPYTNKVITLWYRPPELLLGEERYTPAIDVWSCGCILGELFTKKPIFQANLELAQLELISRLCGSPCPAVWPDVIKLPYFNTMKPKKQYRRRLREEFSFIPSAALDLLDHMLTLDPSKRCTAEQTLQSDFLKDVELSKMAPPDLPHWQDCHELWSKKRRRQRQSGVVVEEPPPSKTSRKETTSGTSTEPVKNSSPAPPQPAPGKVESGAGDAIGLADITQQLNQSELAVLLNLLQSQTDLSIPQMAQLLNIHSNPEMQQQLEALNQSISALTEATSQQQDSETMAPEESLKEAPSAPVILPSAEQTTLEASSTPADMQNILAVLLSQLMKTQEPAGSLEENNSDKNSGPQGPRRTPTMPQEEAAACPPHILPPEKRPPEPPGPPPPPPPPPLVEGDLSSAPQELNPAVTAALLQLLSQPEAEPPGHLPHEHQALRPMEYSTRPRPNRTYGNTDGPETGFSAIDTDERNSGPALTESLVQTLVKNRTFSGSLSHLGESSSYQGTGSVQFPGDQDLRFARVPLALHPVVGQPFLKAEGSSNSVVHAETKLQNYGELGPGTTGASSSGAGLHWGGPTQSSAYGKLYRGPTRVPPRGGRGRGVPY
T1 sequence (O75909 whole entry partner): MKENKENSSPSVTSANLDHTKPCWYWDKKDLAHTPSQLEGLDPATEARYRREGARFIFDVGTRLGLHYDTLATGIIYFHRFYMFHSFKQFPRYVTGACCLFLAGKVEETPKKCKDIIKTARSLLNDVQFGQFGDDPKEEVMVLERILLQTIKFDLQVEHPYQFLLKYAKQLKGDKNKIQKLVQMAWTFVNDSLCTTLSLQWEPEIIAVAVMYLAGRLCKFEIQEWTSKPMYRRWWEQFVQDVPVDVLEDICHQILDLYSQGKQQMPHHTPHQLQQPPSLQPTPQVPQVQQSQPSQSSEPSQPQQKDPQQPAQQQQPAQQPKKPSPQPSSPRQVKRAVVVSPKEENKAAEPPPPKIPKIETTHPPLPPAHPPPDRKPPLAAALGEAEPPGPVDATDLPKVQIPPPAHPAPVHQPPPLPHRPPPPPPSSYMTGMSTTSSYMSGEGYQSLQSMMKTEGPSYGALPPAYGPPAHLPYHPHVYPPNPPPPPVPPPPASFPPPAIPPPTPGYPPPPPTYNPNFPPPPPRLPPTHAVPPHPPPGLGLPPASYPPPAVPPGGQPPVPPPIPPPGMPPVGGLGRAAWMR

pIC50	Compound
6.30 to 7.30	C=CC(=O)Nc1cc2nc(N3C[C@H](F)C[C@@H](Nc4ccc(C#N)cn4)C3)n(C)c2cc1C [Example 163, N-(2-((3R,5R)-3-((5-Cyanopyridin-2-yl)amino)-5-fluoropiperidin-1-yl)-1,6-dimethyl-1H-benzo[d]imidazol-5-yl)acrylamide]
6.30 to 7.30	C=CC(=O)Nc1cc2nc(N3C[C@H](F)C[C@@H](Nc4ncc(C(F)(F)F)cn4)C3)n(C)c2cc1CC [Example 131, N-(6-Ethyl-2-((3R,5R)-3-fluoro-5-((5-(trifluoromethyl)pyrimidin-2-yl)amino)piperidin-1-yl)-1-methyl-1H-benzo[d]imidazol-5-yl)acrylamide]
6.30 to 7.30	C=CC(=O)Nc1cc2nc(N3C[C@H](F)C[C@@H](Nc4ncc(C(F)(F)F)cn4)C3)n(C)c2cc1N1CCOCC1 [Example 139, N-(2-((3R,5R)-3-Fluoro-5-((5-(trifluoromethyl)pyrimidin-2-yl)amino)piperidin-1-yl)-1-methyl-6-morpholino-1H-benzo[d]imidazol-5-yl)acrylamide]
> 7.30	C=CC(=O)Nc1ccc2c(c1)nc(N1CCC[C@@H](Nc3ncc(C(F)(F)F)c(N4CCN(C)CC4)n3)C1)n2C [Example 152, (R)—N-(1-Methyl-2-(3-((4-(4-methylpiperazin-1-yl)-5-(trifluoromethyl)pyrimidin-2-yl)amino)piperidin-1-yl)-1H-benzo[d]imidazol-5-yl)acrylamide]
> 7.30	C=CC(=O)Nc1ccc2c(c1)nc(N1CCC[C@@H](Nc3ncc(C#N)s3)C1)n2C [Example 129, (R)—N-(2-(3-((5-Cyanothiazol-2-yl)amino)piperidin-1-yl)-1-methyl-1H-benzo[d]imidazol-5-yl)acrylamide]
> 7.30	C=CC(=O)Nc1ccc2c(c1)nc(N1CCC(F)(F)[C@@H](Nc3ncc(C#N)cn3)C1)n2C [Example 127, (S)—N-(2-(3-((5-Cyanopyrimidin-2-yl)amino)-4,4-difluoropiperidin-1-yl)-1-methyl-1H-benzo[d]imidazol-5-yl)acrylamide]
> 7.30	C=CC(=O)Nc1c(C(C)C)cc2c(nc(N3CCC[C@@H](Nc4ncc(C(F)(F)F)cn4)C3)n2C)c1C [Example 155, (R)—N-(6-Isopropyl-1,4-dimethyl-2-(3-((5-(trifluoromethyl)pyrimidin-2-yl)amino)piperidin-1-yl)-1H-benzo[d]imidazol-5-yl)acrylamide]
> 7.30	C=CC(=O)Nc1cc2nc(N3C[C@H](F)C[C@@H](Nc4ncc(C(F)(F)F)cn4)C3)n(C)c2cc1Br [Example 141, N-(6-Bromo-2-((3R,5R)-3-fluoro-5-((5-(trifluoromethyl)pyrimidin-2-yl)amino)piperidin-1-yl)-1-methyl-1H-benzo[d]imidazol-5-yl)acrylamide]
6.30 to 7.30	C=CC(=O)Nc1c(C)cc2c(nc(N3C[C@H](F)C[C@@H](Nc4ncc(C#N)cn4)C3)n2C)c1Br [Example 145, N-(4-Bromo-2-((3R,5R)-3-((5-cyanopyrimidin-2-yl)amino)-5-fluoropiperidin-1-yl)-1,6-dimethyl-1H-benzo[d]imidazol-5-yl)acrylamide]
> 7.30	C=CC(=O)Nc1ccc2c(c1)nc(N1CC[C@@H](F)[C@@H](Nc3ncc(C#N)cn3)C1)n2C [Example 125, N-(2-((3S,4R)-3-((5-Cyanopyrimidin-2-yl)amino)-4-fluoropiperidin-1-yl)-1-methyl-1H-benzo[d]imidazol-5-yl)acrylamide]
< 6.30	C=CC(=O)Nc1c(C)cc2c(nc(N3C[C@H](F)C[C@@H](Nc4ncc(C(F)(F)F)cn4)C3)n2C)c1C [Example 144, N-(2-((3R,5R)-3-Fluoro-5-((5-(trifluoromethyl)pyrimidin-2-yl)amino)piperidin-1-yl)-1,4,6-trimethyl-1H-benzo[d]imidazol-5-yl)acrylamide]
> 7.30	C=CC(=O)Nc1cc2nc(N3C[C@H](F)C[C@@H](Nc4ncc(C(F)(F)F)cn4)C3)n(C)c2cc1F [Example 132, N-(6-Fluoro-2-((3R,5R)-3-fluoro-5-((5-(trifluoromethyl)pyrimidin-2-yl)amino)piperidin-1-yl)-1-methyl-1H-benzo[d]imidazol-5-yl)acrylamide]
> 7.30	C=CC(=O)Nc1ccc2c(c1)nc(N1CCC[C@@H](Nc3ncc(C#N)cn3)C1)n2C [Example 143, (R)—N-(2-(3-((5-Cyanopyrimidin-2-yl)amino)piperidin-1-yl)-1-methyl-1H-benzo[d]imidazol-5-yl)acrylamide]
> 7.30	C=CC(=O)Nc1ccc2c(c1)nc(N1C[C@H](O)C[C@@H](Nc3ncc(C#N)cn3)C1)n2C [Example 122, N-(2-((3R,5R)-3-((5-Cyanopyrimidin-2-yl)amino)-5-hydroxypiperidin-1-yl)-1-methyl-1H-benzo[d]imidazol-5-yl)acrylamide]
> 7.30	C=CC(=O)Nc1cc2nc(N3CCC[C@@H](Nc4ncc(C(F)(F)F)cn4)C3)n(C)c2cc1CC [Example 153, (R)—N-(6-Ethyl-1-methyl-2-(3-((5-(trifluoromethyl)pyrimidin-2-yl)amino)piperidin-1-yl)-1H-benzo[d]imidazol-5-yl)acrylamide]
6.30 to 7.30	C=CC(=O)Nc1cc2nc(N3C[C@H](F)C[C@@H](Nc4ncc(C(F)F)cn4)C3)n(C)c2cc1C [Example 160, N-(2-((3R,5R)-3-((5-(Difluoromethyl)pyrimidin-2-yl)amino)-5-fluoropiperidin-1-yl)-1,6-dimethyl-1H-benzo[d]imidazol-5-yl)acrylamide]
> 7.30	C=CC(=O)Nc1ccc2c(c1)nc(N1CC[C@H](F)[C@@H](Nc3ncc(C#N)cn3)C1)n2C [Example 126, N-(2-((3S,4S)-3-((5-Cyanopyrimidin-2-yl)amino)-4-fluoropiperidin-1-yl)-1-methyl-1H-benzo[d]imidazol-5-yl)acrylamide]
> 7.30	C=CC(=O)Nc1cc2nc(N3C[C@H](F)C[C@@H](Nc4ncc(C(F)(F)F)cn4)C3)n(C)c2cc1N1CCCC1 [Example 136, N-(2-((3R,5R)-3-Fluoro-5-((5-(trifluoromethyl)pyrimidin-2-yl)amino)piperidin-1-yl)-1-methyl-6-(pyrrolidin-1-yl)-1H-benzo[d]imidazol-5-yl)acrylamide]
6.30 to 7.30	C=CC(=O)Nc1cc2nc(N3C[C@H](F)C[C@@H](Nc4ncc(C(F)(F)F)cn4)C3)n(C)c2cc1C(=O)N1CCOCC1 [Example 137, N-(2-((3R,5R)-3-Fluoro-5-((5-(trifluoromethyl)pyrimidin-2-yl)amino)piperidin-1-yl)-1-methyl-6-(morpholine-4-carbonyl)-1H-benzo[d]imidazol-5-yl)acrylamide]
6.30 to 7.30	C=CC(=O)Nc1cc2nc(N3C[C@H](F)C[C@@H](Nc4ncc(C#N)c(C)n4)C3)n(C)c2cc1C [Example 164, N-(2-((3R,5R)-3-((5-Cyano-4-methylpyrimidin-2-yl)amino)-5-fluoropiperidin-1-yl)-1,6-dimethyl-1H-benzo[d]imidazol-5-yl)acrylamide]
< 6.30	C=CC(=O)Nc1cc2nc(N3CC[C@H](O)[C@@H](Nc4ncc(C(F)(F)F)cn4)C3)n(C)c2cc1C [Example 149, N-(2-((3S,4S)-4-Hydroxy-3-((5-(trifluoromethyl)pyrimidin-2-yl)amino)piperidin-1-yl)-1,6-dimethyl-1H-benzo[d]imidazol-5-yl)acrylamide]
6.30 to 7.30	C=CC(=O)N[C@@H]1CCN(c2nccn3c(N4C[C@H](F)C[C@@H](Nc5ncc(C(F)(F)F)cn5)C4)ncc23)C1 [Example 86, N—((R)-1-(3-((3R,5R)-3-Fluoro-5-((5-(trifluoromethyl)pyrimidin-2-yl)amino)piperidin-1-yl)imidazo[1,5-a]pyrazin-8-yl)pyrrolidin-3-yl)acrylamide]
> 7.30	C=CC(=O)Nc1ccc2c(c1)nc(N1C[C@H](Nc3ncc(C(F)(F)F)cn3)CC(F)(F)C1)n2C [Example 124, (R)—N-(2-(3,3-Difluoro-5-((5-(trifluoromethyl)pyrimidin-2-yl)amino)piperidin-1-yl)-1-methyl-1H-benzo[d]imidazol-5-yl)acrylamide]
> 7.30	C=CC(=O)Nc1cc2nc(N3C[C@H](F)C[C@@H](Nc4ncc(C(F)(F)F)cn4)C3)n(C)c2cc1C [Example 100, N-(2-((3R,5R)-3-fluoro-5-((5-(trifluoromethyl)pyrimidin-2-yl)amino)piperidin-1-yl)-1,6-dimethyl-1H-benzo[d]imidazol-5-yl)acrylamide]
6.30 to 7.30	C=CC(=O)N1CCC(c2nccn3c(N4CCC[C@@H](Nc5ncc(C(F)(F)F)cn5)C4)ncc23)CC1 [Example 110, (R)-1-(4-(3-(3-((5-(Trifluoromethyl)pyrimidin-2-yl)amino)piperidin-1-yl)imidazo[1,5-a]pyrazin-8-yl)piperidin-1-yl)prop-2-en-1-one]
